Ki and melting point data for 28 compounds are collected here from patent publication US8076331B2, “Substituted pyridazine derivatives” (Cephalon, Inc., priority 2008, dated 2011).

Structures can show the parent of a compound that is named as a salt.

The target in one data set is T1, human H3 receptor (Homo sapiens, UniProt Q9Y5N1).
T1 construct: expressed in transfected cells
The data set can be described thus: Human H3 radioligand binding ([3H]-N-alpha-methylhistamine, CHO cell membranes). Particulars: membranes of CHO cells stably expressing the human H3 receptor; [3H]-N-alpha-methylhistamine approx. 1 nM. As for the experimental part:
Methods: CHO cells stably expressing the human H3 receptor (GenBank: NM_007232) were harvested and cell pellets were frozen (—80° C.). Cell pellets were resuspended in 5 mM Tris-HCl, pH 7.5 with […] and a cocktail of protease inhibitors (Complete Protease Inhibitior Tablets, Roche Diagnostics). Cells were disrupted using a polytron cell homogenizer and the suspension was centrifuged at 1000×g for 10 minutes at 4° C. The pellet was discarded and the supernatant centrifuged at 40,000×g for 30 min at 4° C. This membrane pellet was washed in membrane buffer containing 50 mM Tris-HCl, pH 7.5 with 0.6 mM EDTA, 5 mM MgCl2 and protease inhibitors, recentrifuged as above and the final pellet resuspended in membrane buffer plus 250 mM sucrose and frozen at −80° C.
Radioligand Binding. Membranes were resuspended in 50 mM Tris HCl (pH 7.4), 5 mM MgCl2, 0.1% BSA. The membrane suspensions (10 μg protein per well) were incubated in a 96 well microtiter plate with [^3H]-N-alpha-methylhistamine (approximately 1 nM final concentration), test compounds at various concentrations (0.01 nM-30 μM) and scintillation proximity beads (Perkin Elmer, FlashBlueGPCR Scintillating Beads) in a final volume of 80 μl for 4 hours at room temperature, protected from light. Non-specific binding was determined in the presence of 10 μM clobenpropit. Radioligand bound to receptor, and therefore in proximity to the scintillation beads, was measured using a MicroBeta scintillation counter.

T1 sequence (Q9Y5N1 whole entry): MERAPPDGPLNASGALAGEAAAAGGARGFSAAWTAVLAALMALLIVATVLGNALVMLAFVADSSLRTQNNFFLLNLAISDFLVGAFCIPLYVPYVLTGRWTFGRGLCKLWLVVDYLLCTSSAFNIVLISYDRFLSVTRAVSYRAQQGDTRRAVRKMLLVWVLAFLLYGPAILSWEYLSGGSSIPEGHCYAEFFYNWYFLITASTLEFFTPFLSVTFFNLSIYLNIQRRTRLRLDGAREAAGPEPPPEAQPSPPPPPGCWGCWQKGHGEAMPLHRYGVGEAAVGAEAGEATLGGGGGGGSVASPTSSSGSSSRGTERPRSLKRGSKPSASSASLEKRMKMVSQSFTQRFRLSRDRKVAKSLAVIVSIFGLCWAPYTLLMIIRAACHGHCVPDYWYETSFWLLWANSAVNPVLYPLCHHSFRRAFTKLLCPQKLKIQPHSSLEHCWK

The compound `COc1ccc(-c2ccc(OCCCN3CCCCC3)cc2)nn1` [Example 23] showed a melting point of 116 °C. On human H3 receptor, the Ki was below 50 nM.
For the compound `[O-][S+](Cc1ccccc1)c1ccc(-c2ccc(OCCCN3CCCCC3)cc2)nn1` (stereo not drawn) [Example 36, 3-Phenylmethanesulfinyl-6-[4-(3-piperidin-1-yl-propoxy)phenyl]pyridazine], the melting point was 186 °C. For the same compound, at human H3 receptor, the Ki is below 50 nM.
`C[C@@H]1CCCN1CCCOc1ccc(-c2ccc(Cl)nn2)cc1` [Example 1, 3-Chloro-6-{4-[3-((R)-2-methyl-pyrrolidin-1-yl)propoxy]-phenyl}pyridazine] had a Ki at human H3 receptor below 50 nM.
For the compound `C[C@@H]1CCCN1CCCOc1ccc(-c2ccc(SCc3ccccc3)nn2)cc1` [Example 33, 3-Benzylsulfanyl-6-{4-[3-((R)-2-methyl-pyrrolidin-1-yl)-propoxy]phenyl}pyridazine], the melting point came to 104 °C. At human H3 receptor, the inhibition constant (Ki) is below 50 nM.
Compound `N#Cc1cc(-c2ccc(Cl)nn2)ccc1OCCCN1CCCCC1` [Example 14, 5-(6-Chloro-pyridazin-3-yl)-2-(3-piperidin-1-yl-propoxy)benzonitrile] came in with a melting point of 140 to 142 °C. Besides, the Ki on human H3 receptor is above 101 nM.
The compound `O=S(=O)(Cc1ccccc1)c1ccc(-c2ccc(OCCCN3CCCCC3)cc2)nn1` [Example 38, 3-Phenylmethanesulfonyl-6-[4-(3-piperidin-1-yl-propoxy)phenyl]pyridazine] returned a melting point of 134 °C. In addition, at human H3 receptor, the Ki is below 50 nM.
The like results for `COc1nnc(-c2ccc(OCCCN3CCC[C@H]3C)cc2)c2c1CCC2` [Example 39, 1-Methoxy-4-{4-[3-((R)-2-methylpyrrolidin-1-yl)-propoxy]-phenyl}6,7-dihydro-5H-cyclopenta[d]pyridazine] were, in that order, 109 °C and below 50 nM.
In the case of `C[C@@H]1CCCN1CCCOc1ccc(-c2ccc(Oc3cncc(Cl)c3)nn2)cc1` [Example 19], the melting point was 119 °C. At human H3 receptor, this compound yielded an inhibitory constant (Ki) below 50 nM.
`CSc1ccc(-c2ccc(OCCCN3CCC[C@H]3C)cc2)nn1` [Example 30] returned a melting point of 101 °C. Further, the Ki on human H3 receptor was below 50 nM.
`c1ccc(CSc2ccc(-c3ccc(OCCCN4CCCCC4)cc3)nn2)cc1` [Example 34, 3-Benzylsulfanyl-6-[4-(3-piperidin-1-yl-propoxy)-phenyl]pyridazine] came in with a melting point of 144 °C. The compound further came in with an inhibition constant (Ki) at human H3 receptor below 50 nM.
`c1ccc(COc2ccc(-c3ccc(OCCCN4CCCCC4)cc3)nn2)cc1` [Example 20, 3-Benzyloxy-6-[4-(3-piperidin-1-yl-propoxy)phenyl]pyridazine]: the Ki at human H3 receptor is below 50 nM.
`CC(C)Oc1ccc(-c2ccc(OCCCN3CCC[C@H]3C)cc2)nn1` [Example 24]: the melting point worked out at 75 °C. This compound showed a Ki at human H3 receptor below 50 nM.
The compound `C[C@@H]1CCCN1CCCOc1ccc(-c2ccc(OCc3ccc(F)cc3)nn2)cc1` [Example 26, 3-(4-Fluoro-benzyloxy)-6-{4-[3-((R)-2methyl-pyrrolidin-1-yl)-propoxy]phenyl}pyridazine] registered a melting point of 118 °C. The Ki on human H3 receptor is below 50 nM.
The compound `Cc1cc(OCCCN2CCCCC2)ccc1-c1ccc(Cl)nn1` [Example 12, 3-Chloro-6-[2-methyl-4-(3-piperidin-1-yl-propoxy)phenyl]pyridazine] had a melting point of 85 °C. The Ki on human H3 receptor was below 50 nM.
Turning to `CNc1ccc(-c2ccc(OCCCN3CCC[C@H]3C)cc2)nn1` [Example 8, Methyl-(6-{4-[3-((R)-2-methyl-pyrrolidin-1-yl)-propoxy]phenyl}pyridazin-3-yl)amine], the melting point lay within 126 to 129 °C. The compound further came in with an inhibitory constant (Ki) at human H3 receptor below 50 nM.
`C[C@@H]1CCCN1CCCOc1ccc(-c2ccc(N)nn2)cc1` [Example 7, 6-{4-[3-((R)-2-Methyl-pyrrolidin-1-yl)-propoxy]-phenyl}pyridazin-3-ylamine] showed a melting point of 121 to 122 °C. For the same compound, the Ki at human H3 receptor was below 50 nM.
In the case of `Clc1ccc(-c2ccc(OCCCN3CCCCC3)cc2)nn1` [Example 2, 3-Chloro-6-[4-(3-piperidin-1-yl-propoxy)-phenyl]pyridazine], the melting point was 140 °C. The same compound gave an inhibitory constant (Ki) at human H3 receptor below 50 nM.
The corresponding values for `C[C@@H]1CCCN1CCCOc1ccc(-c2ccc(OCc3ccc(C(F)(F)F)cc3)nn2)cc1` [Example 27, 3-{4-[3-((R)-2-Methyl-pyrrolidin-1-yl)-propoxy]-phenyl}-6-(4-trifluoromethyl-benzyloxy)pyridazine] are 160 °C and below 50 nM.
As to `Cc1ccc(-c2ccc(OCCCN3CCC[C@H]3C)cc2)nn1` [Example 3, 3-Methyl-6-{4-[3-((R)-2-methyl-pyrrolidin-1-yl)-propoxy]-phenyl}pyridazine], the Ki on human H3 receptor is below 50 nM.
The compound `CSc1ccc(-c2ccc(OCCCN3CCCCC3)cc2)nn1` [Example 31, 3-Methylsulfanyl-6-[4-(3-piperidin-1-yl-propoxy)phenyl]pyridazine] gave a melting point of 122 °C. Moreover, the Ki at human H3 receptor lay in the range of 51 to 100 nM.
For the compound `C[C@H](COc1ccc(-c2ccc(Cl)nn2)cc1)CN1CCC[C@H]1C` [Example 43, 3-Chloro-6-{4-[(S)-2-methyl-3-((R)-2-methylpyrrolidin-1-yl)propoxy]-phenyl}pyridazine], the Ki at human H3 receptor was below 50 nM.
In turn, `C[C@@H]1CCCN1CCCOc1ccc(-c2cccnn2)cc1` [Example 45, 3-{4-[3-((R)-2-Methyl-pyrrolidin-1-yl)-propoxy]-phenyl}-pyridazine] came in with an inhibition constant Ki at human H3 receptor below 50 nM.
For `CCNc1ccc(-c2ccc(OCCCN3CCC[C@H]3C)cc2)nn1` [Example 28, Ethyl-(6-{4-[3-((R)-2-methyl-pyrrolidin-1-yl)-propoxy]-phenyl}pyridazin-3-yl)amine], the Ki at human H3 receptor is below 50 nM.
The compound `C[C@@H]1CCCN1CCCOc1ccc(-c2ccc(N3CCOCC3)nn2)cc1` [Example 6, 4-(6-{4-[3-((R)-2-Methylpyrrolidin-1-yl)-propoxy]phenyl}pyridazin-3-yl)morpholine] showed a Ki at human H3 receptor below 50 nM.
Consider `C[C@@H]1CCCN1CCCOc1ccc(-c2ccc([S+]([O-])Cc3ccccc3)nn2)cc1` (stereo partly drawn) [Example 35, 3-{4-[3-((R)-2-Methylpyrrolidin-1-yl)propoxy]phenyl}-6-phenylmethanesulfinyl-pyridazine], for which the Ki at human H3 receptor is below 50 nM.
`C[C@@H]1CCCN1CCCOc1ccc(-c2cccnn2)cc1` (as salt: HCl) [Example 45, 3-{4-[3-((R)-2-Methyl-pyrrolidin-1-yl)-propoxy]-phenyl}-pyridazine] showed a melting point of 198 to 201 °C.
With `CSc1nnc(-c2ccc(OCCCN3CCC[C@H]3C)cc2)c2c1CCC2` [Example 32, 1-{4-[3-((R)-2-Methyl-pyrrolodin-1-yl)-propoxy]-phenyl}-4-methylsulfanyl-6,7-dihydro-5H-cyclopenta[d]pyridazine], at human H3 receptor, the Ki is below 50 nM.
On the same count and under the same terms, in the case of `C[C@@H]1CCCN1CCCOc1ccc(-c2ccc(S(=O)(=O)Cc3ccccc3)nn2)cc1` [Example 37, 3-{4-[3-((R)-2-Methyl-pyrrolidin-1-yl)-propoxy]phenyl}-6-phenylmethanesulfonyl-pyridazine] it was below 50 nM.

In general, Ki refers to a dissociation constant, usually derived from enzyme kinetics or from competition with a known ligand. Read a high Ki as a looser hold on the target. What is called melting point is the temperature, or range, at which the solid turns liquid.
